The results in this text go back to article PMC11915835, “Enhancing the solubility of SARS-CoV-2 inhibitors to increase future prospects for clinical development” (Journal of Virology, 2025).

Like-named read-outs stand apart in the source and are kept apart here. Some results are limits rather than exact numbers.

Data set [1] has as its target SARS-CoV-2 tHRN peptide (44 residues) (Severe acute respiratory syndrome coronavirus 2, UniProt P0DTC2). Format: binding.
The next data set has as its system SARS-CoV-2 S BA.5. It is filed as cell-based. Particulars: for IC50: read-out: IC50, inhibition of S-mediated cell–cell fusion, SARS-CoV-2 BA.5; for IC90: read-out: IC90, inhibition of S-mediated cell–cell fusion, SARS-CoV-2 BA.5.
In data set [2] the target is SARS-CoV-2 HRN peptide (55 residues) (Severe acute respiratory syndrome coronavirus 2, UniProt P0DTC2). Format: binding. Particulars: pH 7.4.
Data set [3] is described as follows: Chemical stability in PBS by UPLC. It is filed as physicochemical. Particulars: room temperature; for Peptide degradation after incubation in PBS: 2 weeks, UPLC 220 nm, disulfide peak after 1 day removed by TCEP; for Integrity during the solubility study: up to 168 h, UPLC, 220 nm.
The conditions of data set [4]: pH 7.4.

As to `CC[C@H](C)[C@H](NC(=O)[C@H](C)NC(=O)[C@H](CCC(=O)O)NC(=O)[C@H](CCC(=O)O)NC(=O)[C@H](CC(C)C)NC(=O)[C@H](CCCCN)NC(=O)[C@H](CCCCN)NC(=O)[C@H](CCSC)NC(=O)[C@H](CCC(=O)O)NC(=O)[C@H](Cc1ccc(O)cc1)NC(=O)[C@H](CCC(=O)O)NC(=O)[C@H](CC(C)C)NC(=O)[C@H](CC(=O)O)NC(=O)[C@H](CC(C)C)NC(=O)[C@H](Cc1ccccc1)NC(=O)[C@@H](NC(=O)[C@@H](NC(=O)[C@H](CC(N)=O)NC(=O)[C@@H](NC(=O)[C@H](CCC(N)=O)NC(=O)[C@H](CC(=O)O)NC(=O)[C@H](CC(C)C)NC(=O)[C@H](CO)NC(C)=O)[C@@H](C)CC)C(C)C)[C@@H](C)O)C(=O)N[C@@H](CCCCN)C(=O)N[C@@H](CCCCN)C(=O)N[C@@H](CC(C)C)C(=O)N[C@@H](CCC(=O)O)C(=O)N[C@@H](CCC(=O)O)C(=O)N[C@@H](CO)C(=O)N[C@@H](Cc1ccc(O)cc1)C(=O)N[C@H](C(=O)N[C@@H](CC(=O)O)C(=O)N[C@@H](CC(C)C)C(=O)N[C@@H](CCCCN)C(=O)N[C@@H](CCC(=O)O)C(=O)N[C@@H](CC(C)C)C(N)=O)[C@@H](C)CC` [EK1, reference compound], the “Tm of 1:1 mixture with tHRN” value in data set [1] (pH 7.4) came out at 38 ± 0.3 °C.

Take “Ac-DISQINASVVNIEYEIKKLEEVAKKLEESLIDLQEL-NH2 [QE]”: in the data set with SARS-CoV-2 S BA.5, the IC50 is 7 ± 2.1 nM and the IC90 worked out at 14 ± 4 nM. In addition, the “Temperature above which disruption of the helical assembly with HRN is detectable” value in data set [2] was greater than 70 °C. Also, in data set [3], the “Peptide degradation after incubation in PBS” value is listed as “No peptide degradation was observed”. The “Tm of 1:1 mixture with tHRN” value in data set [1] (5-95 °C) is 65 +/- 0.5 °C.

As to “Ac-DISQINASVVNIEYEIKKLEEVAKKLEESLIDLQELGSGSGC-NH2 [QE-L]”, the “Solubility relative to HRC-L” value in data set [4] was “~ two-fold”. Besides, in data set [3], the “Integrity during the solubility study” value is on record as “remained intact”.

Regarding “Ac-PDVDLGDISQINASVVNIEYEIKKLEEVAKKLEESLIDLQEL-NH2 [QE-EXT]”, the IC50 with SARS-CoV-2 S BA.5 was 5.6 ± 0.72 nM.

“Ac-SIDQINATFVDIEYEIKKLEEVAKKLEESYIDLKEL-NH2 [SK]”: in the data set on SARS-CoV-2 S BA.5, the IC50 turned out to be 6.2 ± 1.1 nM and the IC90 was determined as 14 ± 2 nM. In data set [2], the “Temperature above which disruption of the helical assembly with HRN is detectable” value is greater than 70 °C. Moreover, the “Peptide degradation after incubation in PBS” value in data set [3] is “No peptide degradation was observed”. Moreover, in data set [1] (5-95 °C), the “Tm of 1:1 mixture with tHRN” value was 72 +/- 0.3 °C.

As to “Ac-SIDQINATFVDIEYEIKKLEEVAKKLEESYIDLKELGSGSGC-NH2 [SK-L]”, in data set [4], the “Solubility relative to HRC-L” value was “~ two-fold”. In addition, the “Integrity during the solubility study” value in data set [3] is on record as “remained intact”.
